From patent US11091478B2 (Fochon Pharmaceuticals, Ltd., priority 2017, dated 2021)

System: DOHH2 cells
Assay: Cell proliferation assay (MTS), DOHH2 cells, 120 h
Type: cell-based
Conditions: Homo sapiens, DOHH-2, 120 h
Text: Cell Proliferation Assays
MTS testing kit was purchased from Promega. The RPMI-1640, Fetal bovine serum and Penicillin-Streptomycin were purchased from Gibco. Dimethyl sulfoxide (DMSO) was purchased from Sigma.
To investigate whether a compound is able to inhibit the activity of BCL-2 in cells, a mechanism-based assay using DOHH2 (DSMZ No.® ACC 47) and RS4;11 (ATCC® CRL-1873™) cell was developed. In this assay, inhibition of Bcl-2 was detected by the inhibition of DOHH2 cells proliferation. DOHH2 cells were cultured in culture flasks to 40-80% confluence in RPMI-1640 plus 10% fetal bovine serum. Cells were collected and plated onto 96-well plates at desired cell density (5000 cells/well). Plates were incubated overnight at 37° C., with 5% CO2 to adhere. Compounds were added to the plates, and the final compound concentrations were 10000, 3333, 1111, […], 124, 41, 14, 4.6 and 1.5 nM. Plates plated with DOHH2 or RS4;11 cells were placed at 37° C., with 5% CO2 for 120 h (DOHH2) or 72 h (RS4;11) respectively. 20 μl MTS/100 μl medium mixture solution were added to each well and incubate the plates for exactly 2 hours. The reaction was stopped by adding 25 μl 10% SDS per well. Measure absorbance at 490 nm and 650 nm (reference wavelength). IC50 was calculated using GraphPad Prism 5.0.
Select compounds prepared as described above were assayed according to the biological procedures described herein.

SMILES | IC50
CC1(C)CCC(CN2CCN(c3ccc(C(=O)NS(=O)(=O)c4cc5c(c([N+](=O)[O-])c4)N[C@H](CN4CCC(C)(O)CC4)C5)c(Oc4cnc5[nH]ccc5c4)c3)CC2)=C(c2ccc(Cl)cc2)C1 [Example 1-4, (S)-2-((1H-pyrrolo[2,3-b]pyridin-5-yl)oxy)-4-(4-((4′-chloro-5,5-dimethyl-3,4,5,6-tetra-hydro-[1,1′-biphenyl]-2-yl)methyl)piperazin-1-yl)-N-((2-((4-hydroxy-4-methylpiperidin-1-yl)methyl)-7-nitroindolin-5-yl)sulfonyl) benzamide] | 0.308 µM
CC1(C)CCC(CN2CCN(c3ccc(C(=O)NS(=O)(=O)c4cc5c(c([N+](=O)[O-])c4)N[C@H](CO)C5)c(Oc4cnc5[nH]ccc5c4)c3)CC2)=C(c2ccc(Cl)cc2)C1 [Example 1-6, (S)-2-((1H-pyrrolo[2,3-b]pyridin-5-yl)oxy)-4-(4-((4′-chloro-5,5-dimethyl-3,4,5,6-tetra-hydro-[1,1′-biphenyl]-2-yl)methyl)piperazin-1-yl)-N-((2-(hydroxymethyl)-7-nitroindolin-5-yl)sulfonyl)benzamide] | 0.221 µM
CC1(C)CCC(CN2CCN(c3ccc(C(=O)NS(=O)(=O)c4cc5c(c([N+](=O)[O-])c4)N[C@H](CCO)C5)c(Oc4cnc5[nH]ccc5c4)c3)CC2)=C(c2ccc(Cl)cc2)C1 [Example 1-20, (S)-2-((1H-pyrrolo[2,3-b]pyridin-5-yl)oxy)-4-(4-((4′-chloro-5,5-dimethyl-3,4,5,6-tetra-hydro-[1,1′-biphenyl]-2-yl)methyl)piperazin-1-yl)-N-((2-(2-hydroxyethyl)-7-nitro-indolin-5-yl)sulfonyl)benzamide] | 0.17 µM
CC1(C)CCC(CN2CCN(c3ccc(C(=O)NS(=O)(=O)c4cc([N+](=O)[O-])c5nc(CN6CCOCC6)[nH]c5c4)c(Oc4cnc5[nH]ccc5c4)c3)CC2)=C(c2ccc(Cl)cc2)C1 [Example 1-27, 2-((1H-pyrrolo[2,3-b]pyridin-5-yl)oxy)-4-(4-((4′-chloro-5,5-dimethyl-3,4,5,6-tetrahydro-[1,1′-biphenyl]-2-yl)methyl)piperazin-1-yl)-N-((2-(morpholinomethyl)-4-nitro-1H-benzo[d]imidazol-6-yl)sulfonyl)benzamide] | 0.051 µM
CN1CCN(C[C@@H]2COc3cc(S(=O)(=O)NC(=O)c4ccc(N5CCN(CC6=C(c7ccc(Cl)cc7)CC(C)(C)CC6)CC5)cc4Oc4cnc5[nH]ccc5c4)cc([N+](=O)[O-])c3N2)CC1 [Example 2-4, (R)-2-((1H-pyrrolo[2,3-b]pyridin-5-yl)oxy)-4-(4-((4′-chloro-5,5-dimethyl-3,4,5,6-tetra-hydro-[1,1′-biphenyl]-2-yl)methyl)piperazin-1-yl)-N-((3-((4-methylpiperazin-1-yl)meth-yl)-5-nitro-3,4-dihydro-2H-benzo[b][1,4]oxazin-7-yl)sulfonyl)benzamide] | 0.139 µM
CC1(C)CCC(CN2CCN(c3ccc(C(=O)NS(=O)(=O)c4cc5c(c([N+](=O)[O-])c4)N[C@H](CCNC(=O)C4CCOCC4)CO5)c(Oc4cnc5[nH]ccc5c4)c3)CC2)=C(c2ccc(Cl)cc2)C1 [Example 2-57, (R)-N-(2-(7-(N-(2-((1H-pyrrolo[2,3-b]pyridin-5-yl)oxy)-4-(4-((4′-chloro-5,5-dimethyl-3,4,5,6-tetrahydro-[1,1′-biphenyl]-2-yl)meth-yl)piperazin-1-yl)benzoyl)sulfamoyl)-5-nitro-3,4-dihydro-2H-benzo[b][1,4]oxazin-3-yl)ethyl)tetrahydro-2H-pyran-4-carboxamide] | 0.392 µM
CC1(C)CCC(CN2CCN(c3ccc(C(=O)NS(=O)(=O)c4cc5c(c([N+](=O)[O-])c4)N[C@@H](CCNC(=O)N4CCOCC4)CO5)c(Oc4cnc5[nH]ccc5c4)c3)CC2)=C(c2ccc(Cl)cc2)C1 [Example 2-58, (S)-N-(2-(7-(N-(2-((1H-pyrrolo[2,3-b]pyridin-5-yl)oxy)-4-(4-((4′-chloro-5,5-dimethyl-3,4,5,6-tetrahydro-[1,1′-biphenyl]-2-yl)meth-yl)piperazin-1-yl)benzoyl)sulfamoyl)-5-nitro-3,4-dihydro-2H-benzo[b][1,4]oxazin-3-yl)ethyl)morpholine-4-carboxamide] | 0.868 µM
CC1(C)CCC(CN2CCN(c3ccc(C(=O)NS(=O)(=O)c4cc5c(c([N+](=O)[O-])c4)N[C@H](CCNC(=O)N4CCOCC4)CO5)c(Oc4cnc5[nH]ccc5c4)c3)CC2)=C(c2ccc(Cl)cc2)C1 [Example 2-59] | 0.73 µM
CC(=O)NCC[C@@H]1COc2cc(S(=O)(=O)NC(=O)c3ccc(N4CCN(CC5=C(c6ccc(Cl)cc6)CC(C)(C)CC5)CC4)cc3Oc3cnc4[nH]ccc4c3)cc([N+](=O)[O-])c2N1 [Example 2-62, (R)-2-((1H-pyrrolo[2,3-b]pyridin-5-yl)oxy)-N-((3-(2-acetamidoethyl)-5-nitro-3,4-di-hydro-2H-benzo[b][1,4]oxazin-7-yl)sulfonyl)-4-(4-((4′-chloro-5,5-dimethyl-3,4,5,6-tetra-hydro-[1,1′-biphenyl]-2-yl)methyl)piperazin-1-yl)benzamide] | 0.23 µM
CC1(C)CCC(CN2CCN(c3ccc(C(=O)NS(=O)(=O)c4cc5c(c([N+](=O)[O-])c4)N[C@@H](CNS(=O)(=O)N4CCOCC4)CO5)c(Oc4cnc5[nH]ccc5c4)c3)CC2)=C(c2ccc(Cl)cc2)C1 [Example 2-67, (S)-2-((1H-pyrrolo[2,3-b]pyriidn-5-yl)oxy)-4-(4-((4′-chloro-5,5-dimethyl-3,4,5,6-tetra-hydro-[1,1′-biphenyl]-2-yl)methyl)piperazin-1-yl)-N-((3-((morpholine-4-sulfonamido)methyl)-5-nitro-3,4-dihydro-2H-benzo[b] [1,4]oxazin-7-yl)sulfonyl)benzamide] | 1.32 µM
CC1(C)CCC(CN2CCN(c3ccc(C(=O)NS(=O)(=O)c4cc5c(c([N+](=O)[O-])c4)N[C@@H](CN=S4(=O)CCCC4)CO5)c(Oc4cnc5[nH]ccc5c4)c3)CC2)=C(c2ccc(Cl)cc2)C1 [Example 2-76, (S)-2-((1H-pyrrolo[2,3-b]pyridin-5-yl)oxy)-4-(4-((4′-chloro-5,5-dimethyl-3,4,5,6-tetra-hydro-[1,1′-biphenyl]-2-yl)methyl)piperazin-1-yl)-N-((5-nitro-3-(((1-oxidotetrahydro-1λ^6-thiophen-1-ylidene)amino)methyl)-3,4-dihydro-2H-benzo[b][1,4]oxazin-7-yl)sulfo-nyl)benzamide] | 0.12 µM
C[C@H]1COCCN1C[C@H]1COc2cc(S(=O)(=O)NC(=O)c3ccc(N4CCN(CC5=C(c6ccc(Cl)cc6)CC(C)(C)CC5)CC4)cc3Oc3cnc4[nH]ccc4c3)cc([N+](=O)[O-])c2N1 [Example 2-85, 2-((1H-pyrrolo[2,3-b]pyridin-5-yl)oxy)-4-(4-((4′-chloro-5,5-dimethyl-3,4,5,6-tetra-hydro-[1,1′-biphenyl]-2-yl)methyl)piperazin-1-yl)-N-(((S)-3-(((S)-3-methylmorpholino)meth-yl)-5-nitro-3,4-dihydro-2H-benzo[b][1,4]oxazin-7-yl)sulfonyl)benzamide] | 0.434 µM
C[C@@H]1COCCN1C[C@H]1COc2cc(S(=O)(=O)NC(=O)c3ccc(N4CCN(CC5=C(c6ccc(Cl)cc6)CC(C)(C)CC5)CC4)cc3Oc3cnc4[nH]ccc4c3)cc([N+](=O)[O-])c2N1 [Example 2-86, 2-((1H-pyrrolo[2,3-b]pyridin-5-yl)oxy)-4-(4-((4′-chloro-5,5-dimethyl-3,4,5,6-tetra-hydro-[1,1′-biphenyl]-2-yl)methyl)piperazin-1-yl)-N-(((S)-3-(((R)-3-methylmorpholino)meth-yl)-5-nitro-3,4-dihydro-2H-benzo[b][1,4]oxazin-7-yl)sulfonyl)benzamide] | 0.648 µM
CN=S1(=O)CCN(C[C@H]2COc3cc(S(=O)(=O)NC(=O)c4ccc(N5CCN(CC6=C(c7ccc(Cl)cc7)CC(C)(C)CC6)CC5)cc4Oc4cnc5[nH]ccc5c4)cc([N+](=O)[O-])c3N2)CC1 [Example 2-122, (S)-2-((1H-pyrrolo[2,3-b]pyridin-5-yl)oxy)-4-(4-((4′-chloro-5,5-dimethyl-3,4,5,6-tetra-hydro-[1,1′-biphenyl]-2-yl)methyl)piperazin-1-yl)-N-((3-((1-(methylimino)-1-oxido-1λ^6-thiomorpholino)methyl)-5-nitro-3,4-di-hydro-2H-benzo[b][1,4]oxazin-7-yl)sulfonyl)benzamide] | 0.66 µM
CC1(C)CCC(CN2CCN(c3ccc(C(=O)NS(=O)(=O)c4cc5c(c([N+](=O)[O-])c4)N[C@@H](CN4CCS(=O)(=NC6CC6)CC4)CO5)c(Oc4cnc5[nH]ccc5c4)c3)CC2)=C(c2ccc(Cl)cc2)C1 [Example 2-124, (S)-2-((1H-pyrrolo[2,3-b]pyridin-5-yl)oxy)-4-(4-((4′-chloro-5,5-dimethyl-3,4,5,6-tetra-hydro-[1,1′-biphenyl]-2-yl)methyl)piperazin-1-yl)-N-((3-((1-(cyclopropylimino)-1-oxi-do-1λ^6-thiomorpholino)methyl)-5-nitro-3,4-dihydro-2H-benzo[b][1,4]oxazin-7-yl)sulfonyl)benzamide] | 0.649 µM
